Experimental data: patent publication US20090118261A1, “QUINAZOLINONE DERIVATIVES AND THEIR USE AS B-RAF INHIBITORS” (ASTRAZENECA AB, priority 2004, published 2009)

What follows are compounds tested against T1, human recombinant, purified wild type His-B-Raf protein kinase (Homo sapiens, UniProt P15056) (assay: B-Raf In Vitro ELISA Assay). Details: phosphorylation of MEK1; 2.5 nM B-Raf, 0.15 μM MEK1, 10 μM ATP.
T1 construct: His
Format: biochemical
Procedure: B-Raf In Vitro ELISA Assay
Activity of human recombinant, purified wild type His-B-Raf protein kinase was determined in vitro using an enzyme-linked immunosorbent assay (ELISA) assay format, which measures phosphorylation of the B-Raf substrate, human recombinant, purified His-derived (detagged) MEK1. The reaction utilized 2.5 nM B-Raf, 0.15 μM MEK1 and 10 μM adenosine triphosphate (ATP) in 40 mM N-(2-hydroxyethyl)piperazine-N′-(2-ethanesulfonic acid hemisodium salt (HEPES), 5 mM 1,4-dithio-DL-threitol (DTT), 10 mM MgCl2, 1 mM ethylenediaminetetraacetic acid (EDTA) and 0.2M NaCl (1×HEPES buffer), with or without compound at various concentrations, in a total reaction volume of 25 μl in 384 well plates. B-Raf and compound were preincubated in 1×HEPES buffer for 1 hour at 25° C. Reactions were initiated with addition of MEK1 and ATP in 1×HEPES buffer and incubated at 25° C. for 50 minutes and reactions stopped by addition of 10 μl 175 mM EDTA (final concentration 50 mM) in 1×HEPES buffer. 5 μl of the assay mix was then diluted 1:20 into 50 mM EDTA in 1×HEPES buffer, transferred to 384 well black high protein binding plates and incubated for 12 h at 4° C. Plates were washed in tris buffered saline containing 0.1% Tween20 (TBST), blocked with 50 μl Superblock (Pierce) for 1 hour at 25° C., washed in TBST, incubated with 50 μl rabbit polyclonal anti-phospho-MEK antibody (Cell Signaling) diluted 1:1000 in TBS for 2 h at 25° C., washed with TBST, incubated with 50 μl goat anti-rabbit horseradish peroxidase-linked antibody (Cell Signaling) diluted 1:2000 in TBS for 1 hour at 25° C. and washed with TBST. 50 μl of fluorogenic peroxidase substrate (Quantablu—Pierce) was added and following incubation for 45-60 mins, 50 μl QuantabluSTOP (Pierce) was added. Blue fluorescent product was detected at excitation 325 nm and emission 420 nm using a TECAN Ultra plate reader. Data was graphed and IC50s calculated using Excel Fit (Microsoft).

T1 sequence (P15056 whole entry): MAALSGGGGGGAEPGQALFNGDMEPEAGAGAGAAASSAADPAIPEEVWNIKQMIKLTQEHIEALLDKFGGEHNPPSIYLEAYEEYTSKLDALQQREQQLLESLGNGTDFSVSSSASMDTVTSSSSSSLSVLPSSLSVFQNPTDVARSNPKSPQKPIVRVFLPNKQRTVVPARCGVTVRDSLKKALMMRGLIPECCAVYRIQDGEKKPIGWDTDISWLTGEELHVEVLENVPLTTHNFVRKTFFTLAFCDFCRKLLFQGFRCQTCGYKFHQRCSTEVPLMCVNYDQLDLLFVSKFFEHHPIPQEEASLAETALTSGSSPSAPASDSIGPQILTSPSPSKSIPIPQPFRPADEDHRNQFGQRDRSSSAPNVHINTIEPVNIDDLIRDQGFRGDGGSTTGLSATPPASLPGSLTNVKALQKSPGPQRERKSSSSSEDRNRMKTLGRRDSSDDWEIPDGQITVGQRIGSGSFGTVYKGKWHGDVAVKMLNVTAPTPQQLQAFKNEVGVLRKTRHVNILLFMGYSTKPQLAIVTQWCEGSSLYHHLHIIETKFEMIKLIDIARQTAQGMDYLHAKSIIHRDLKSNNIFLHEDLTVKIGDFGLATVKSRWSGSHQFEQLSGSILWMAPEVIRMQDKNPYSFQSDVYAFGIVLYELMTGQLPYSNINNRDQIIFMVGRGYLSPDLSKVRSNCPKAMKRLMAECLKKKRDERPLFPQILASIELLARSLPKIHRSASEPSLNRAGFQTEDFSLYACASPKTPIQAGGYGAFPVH

IC50 [nM] | SMILES
347 | Cc1ccc(NC(=O)c2cccc(C(C)(C)C#N)c2)cc1Nc1ccc2ncn(CCCN3CCOCC3)c(=O)c2c1 [Example 7, 3-(1-Cyano-1-methylethyl)-N-(4-methyl-3-{[3-(3-morpholin-4-ylpropyl)-4-oxo-3,4-dihydroquinazolin-6-yl]amino}phenyl)-benzamide]
1930 | Cc1ccc(NC(=O)c2cccc(C(C)(C)C#N)c2)cc1N(C)c1ccc2ncn(C)c(=O)c2c1 [Example 33, 3-(Cyano-dimethyl-methyl)-N-{4-methyl-3-[methyl-(3-methyl-4-oxo-3,4-dihydro-quinazolin-6-yl)-amino]-phenyl}-beazamide]
186 | Cc1nc2ccc(Nc3cc(NC(=O)c4cccc(C(C)(C)C#N)c4)ccc3C)cc2c(=O)[nH]1 [Example 4, 3-(1-Cyano-1-methylethyl)-N-{4-methyl-3-[(2-methyl-4-oxo-3,4-dihydroquinazolin-6-yl)amino]phenyl}-benzamide]
